Values of other authors as cited in US8034370B2, “Ocular implant made by a double extrusion process” (Allergan, Inc., priority 2003, dated 2011).
Read-outs that look alike come from different tables or passages of the source.

What was measured:
[1] = in vivo efficacy
[2] = after topical administration

SMILES | potency relative to dexamethasone [1] | Solubility (Ethanol) | Solubility (Methylene chloride) | Solubility (Water) | fraction reaching the anterior segment [2]
C[C@]12CCC(=O)C=C1CC[C@@H]1[C@@H]2[C@@H](O)C[C@@]2(C)[C@H]1CC[C@]2(O)C(=O)CO [hydrocortisone] | approximately twenty five |  |  |  | 
C[C@@H]1C[C@H]2[C@@H]3CCC4=CC(=O)C=C[C@]4(C)[C@@]3(F)[C@@H](O)C[C@]2(C)[C@@]1(O)C(=O)CO [Dexamethasone, pregna-1,4-diene-3,20-dione-9-fluoro-11,17,21-trihydroxy-16-methyl-, (11β,16α)] |  | Ethanol: Sparingly soluble | Methylene chloride: slightly soluble | Water: practically insoluble | about 1%
